Tested on: KRAS-mutant PDC multicell tumor spheroid viability
Assay: Anticancer human tumor 521955-158-R2-J5-PDC patient-derived pancreatic carcinoma cell line growth inhibition [KRAS2]
Conditions: for IC50: curve of first compound; for viability, T/C: stronger effect = lower value
Procedure, shortened: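 KRAS-mutant tumor cells were grown as spheroids with HUVEC endothelial cells and human MSCs as stroma. Targeted agents were tested alone and with KRAS pathway inhibitors. Doses started at or near clinical Cmax, or 10 microM, descending half-log.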

[1] = second compound 0.1 µM, first compound 0.0316 µM
[2] = second compound 0.1 µM, first compound 0.1 µM
[3] = second compound 0.1 µM, first compound 0.316 µM
[4] = second compound 0.1 µM, first compound 1 µM
[5] = second compound 0.1 µM, first compound 3.16 µM
[6] = second compound 0.1 µM, first compound 10 µM
[7] = second compound 0.316 µM, first compound 0.0316 µM
[8] = second compound 0.316 µM, first compound 0.1 µM
[9] = second compound 0.316 µM, first compound 0.316 µM
[10] = second compound 0.316 µM, first compound 1 µM
[11] = second compound 0.316 µM, first compound 3.16 µM
[12] = second compound 0.316 µM, first compound 10 µM
[13] = second compound 1 µM, first compound 0.0316 µM
[14] = second compound 1 µM, first compound 0.1 µM
[15] = second compound 1 µM, first compound 0.316 µM
[16] = second compound 1 µM, first compound 1 µM
[17] = second compound 1 µM, first compound 10 µM
[18] = second compound 3.16 µM, first compound 0.0316 µM
[19] = second compound 3.16 µM, first compound 0.1 µM
[20] = second compound 3.16 µM, first compound 0.316 µM
[21] = second compound 3.16 µM, first compound 1 µM
[22] = second compound 3.16 µM, first compound 3.16 µM
[23] = second compound 3.16 µM, first compound 10 µM
[24] = second compound 10 µM, first compound 0.0316 µM
[25] = second compound 10 µM, first compound 0.1 µM
[26] = second compound 10 µM, first compound 0.316 µM
[27] = second compound 10 µM, first compound 1 µM
[28] = second compound 10 µM, first compound 3.16 µM
[29] = second compound 10 µM, first compound 10 µM
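Note: viability read after seven days of drug exposure.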

Row | Compound | IC50 (second compound 0.1 µM) | IC50 (second compound 0.316 µM) | IC50 (second compound 1 µM) | IC50 (second compound 3.16 µM) | IC50 (second compound 10 µM) | viability, T/C [1] | viability, T/C [2] | viability, T/C [3] | viability, T/C [4] | viability, T/C [5] | viability, T/C [6] | viability, T/C [7] | viability, T/C [8] | viability, T/C [9] | viability, T/C [10] | viability, T/C [11] | viability, T/C [12] | viability, T/C [13] | viability, T/C [14] | viability, T/C [15] | further results
1 | CC1OCC2(CCN(c3cnc(Sc4ccnc(N)c4Cl)c(N)n3)CC2)C1N (centres undefined) + C=CC(=O)N1CCN(c2nc(=O)n(-c3c(C)ccnc3C(C)C)c3nc(-c4c(O)cccc4F)c(F)cc23)C(C)C1 | > 10 µM | > 10 µM | > 10 µM | > 10 µM | > 10 µM | 89.8% | 96.4% | 76.3% | 72% | 97.5% | 67.6% | 89.4% | 81.5% | 76.2% | 75.7% | 71.6% | 63.4% | 101% | 88.4% | 91.8% | viability, T/C [16]: 87.4%; viability, T/C (second compound 1 µM, first compound 3.16 µM): 71.7%; viability, T/C [17]: 66.4%; viability, T/C [18]: 92.1%; viability, T/C [19]: 87.5%; viability, T/C [20]: 72.3%; viability, T/C [21]: 79.1%; viability, T/C [22]: 62%; viability, T/C [23]: 64.7%; viability, T/C [24]: 66.2%; viability, T/C [25]: 59.3%; viability, T/C [26]: 66.2%; viability, T/C [27]: 61.3%; viability, T/C [28]: 54.6%; viability, T/C [29]: 57.8%
2 | COc1cc(Nc2ncc3c(n2)-c2ccc(Cl)cc2C(c2c(F)cccc2OC)=NC3)ccc1C(=O)O + C=CC(=O)N1CCN(c2nc(=O)n(-c3c(C)ccnc3C(C)C)c3nc(-c4c(O)cccc4F)c(F)cc23)C(C)C1 | < 0.0316 µM | < 0.0316 µM | < 0.0316 µM | < 0.0316 µM | < 0.0316 µM | 47.6% | 49.3% | 43% | 42.2% | 46.1% | 38.8% | 43.2% | 44.5% | 52.2% | 44.5% | 44.3% | 36.4% | 48.1% | 44.8% | 43.1% | viability, T/C [16]: 48%; viability, T/C [17]: 32.7%; viability, T/C [18]: 47.5%; viability, T/C [19]: 45.9%; viability, T/C [20]: 36%; viability, T/C [21]: 40.3%; viability, T/C [22]: 37%; viability, T/C [23]: 31.9%; viability, T/C [24]: 40.6%; viability, T/C [25]: 43.5%; viability, T/C [26]: 38.5%; viability, T/C [27]: 37.5%; viability, T/C [28]: 34.8%; viability, T/C [29]: 39.6%

Reference: PubChem BioAssay AID1963871 (Molecular Pharmacology Branch, DTP, NCI, 2024)
